The values that follow are results of earlier work, collected in patent publication US20210274780A1, “Disinfectant Composition Against the Novel Wuhan Corona Virus COVID-19” (priority 2020, published 2021).

Where only a bound is given, the exact number is not on record here.

Consider `[H]/N=C(\N/C(=N/[H])NCCCCCCNC(=N)NC(=N)Nc1ccc(Cl)cc1)Nc1ccc(Cl)cc1` [Chlorhexidine], for which the effectiveness against adenoviruses entry in the data set with adenoviruses is on record as “ineffective”. In addition, in the data set on Gram-positive bacteria, the effective concentration is ≥ 1 µg/L. Besides, the effectiveness against polioviruses result in the data set with polioviruses is recorded as “ineffective”.
